Test results as given in US20240034753A1, “THERAPEUTIC PEPTIDES” (COHBAR, INC., priority 2020, published 2024).
Square brackets hold non-standard residues; d marks the D form. Peptide text beside a SMILES is read from it.

Tests used:
[1] = tested on: 3T3-L1 Mouse Adipocytes; assay: Free fatty acid levels in cultured mouse adipocytes stimulated with isoproterenol; assay type: cell-based; details: peptide 10 μM, 20-22 hours then 3 hours with 1 nM isoproterenol; relative to isoproterenol treated cells
Procedure: The effect of the peptides on fatty acid metabolism can be assessed using an assay of free fatty acid levels in cultured cells such as mouse adipocytes. Peptides were initially prepared as 10 mM stock in DMSO and used at a final concentration of 10 μM (0.1% DMSO). […] Mouse 3T3-L1 cells purchased from ZenBio were seeded at 3,000 cells per well in 96-well plates in Pre-adipocyte Medium (Zen-Bio) and grown to confluence at 37° C. in a humidified atmosphere of 5% CO2/95% air. Two days after confluence, cells were placed in Adipocyte Differentiation Medium (Zen-Bio) and cultured for three additional days at 37° C. in a humidified atmosphere of 5% CO2/95% air. The culture media was then replaced with Adipocyte Maintenance Medium (Zen-Bio) and the cells maintained for an additional 9-12 days at 37° C. in a humidified atmosphere of 5% CO2/95% air with partial medium replacement every other day. Following 12-15 days of differentiation, test peptides were added at a final concentration of 10 μM in 0.1% DMSO and incubated for 20-22 hours in Adipocyte Maintenance Medium at 37° C. in a humidified atmosphere of 5% CO2/95% air. After 20-22 hours, 1 nM isoproterenol was added to all wells except untreated controls and test peptides were replenished. Insulin at 100 nM was added to control wells. Cells were incubated for 3 hours in Assay Buffer (Zen-Bio) at 37° C. in a humidified atmosphere of 5% CO2/95% air. Free fatty acid concentrations in the media were determined using a Free Fatty Acid Assay kit (Zen-Bio) according to the manufacturer's instructions using a Cytation 3 plate reader at 540 nm (BioTek, Winooski, VT). Absorbance values were corrected for untreated background and expressed relative to isoproterenol treated cells. Treatment with isoproterenol (1 nM) alone was used as the free fatty acid level stimulatory control. The relative standard deviation of the isoproterenol control was <10%. […] Free fatty acid levels for insulin (100 nM) treatment were <5% of the isoproterenol control value.

[2] = tested on: SH-SY5Y Neuroblastoma Cells; assay: ATP levels (CellTiter-Glo); assay type: cell-based, human; details: peptide 10 μM, 18-20 hours, relative to 0.1% DMSO treated control
Procedure: The effect of the peptides on cellular metabolism can be assessed using an assay of ATP levels in cultured cells such as human neuroblastoma cells. Peptides were initially prepared as 10 mM stock in DMSO and used at a final concentration of 10 μM (0.1% DMSO). […] CellTiter-Glo® Assay kit was purchased from Promega. SH-SY5Y human bone marrow neuroblastoma cell line was purchased from American Type Culture Collection (Manassas, VA) and licensed from Memorial Sloan-Kettering Cancer Center (New York, NY). SH-SY5Y cells were grown in DMEM/F12 medium supplemented with 10% FBS with 100 IU/ml penicillin and 100 μg/ml streptomycin. Cultures were maintained at 37° C. in a humidified atmosphere of 5% CO2/95% air. SH-SY5Y cells were seeded at 30,000 cells per well on 96-well plates. […] ATP levels were determined using a CellTiter-Glo Assay kit (Promega) according to the manufacturer's instructions. Luminescence for each sample well on the plate was measured using a Cytation 3 plate reader (BioTek, Winooski, VT). Activity was calculated relative to 0.1% DMSO treated control. The relative standard deviation of the result for the 0.1% DMSO treated control was <5%.

## CC[C@H](C)[C@H](NC(=O)[C@@H](NC(=O)[C@H](Cc1c[nH]cn1)NC(=O)[C@H](CCCNC(=N)N)NC(=O)[C@H](CC(=O)O)NC(=O)[C@H](Cc1ccc(O)cc1)NC(=O)[C@H](CC(C)C)NC(=O)[C@H](CC(C)C)NC(=O)[C@@H](NC(=O)[C@@H](N)Cc1c[nH]c2ccccc12)C(C)C)C(C)C)C(=O)NCC(=O)NCC(=O)N[C@@H](CO)C(=O)N[C@@H](CC(C)C)C(=O)N[C@@H](CS)C(=O)N[C@H](C(=O)N[C@H](C(=O)N[C@H](C(=O)N[C@@H](CCC(N)=O)C(=O)N[C@H](C(=O)N[C@@H](CCC(=O)O)C(=O)N[C@H](C)C(=O)O)C(C)C)C(C)C)C(C)C)C(C)C [compound 24] (H-WVLLYDRHVIGGSLCVVVQVE[dA]-OH; N-terminus and C-terminus assumed)
[1]
  Free Fatty Acid Levels, MEAN %ISO: 93.7%
[2]
  ATP Levels, % Control: 98.3%
